Source: patent US5264148A, “Moisture scavenging oxazolidines” (Angus Cheical Company, priority 1990, dated 1993)
Where two headings read alike, the source gives them in different places.

Experiments:
[1] = Comparison of water-scavenging activity in pigment millbase (GC determination of remaining water)
Description: The water-scavenging activity of 4-ethyl-2-isopropyl oxazolidine (BBA), 1-aza-3,7-dioxo-2,8-diisopropyl-5-ethylbicyclo (3.3.0) octane (EBA), p-toluenesulfonyl isocyanate (PTSI), isophorone diisocyanate (IPDI), and sodium potassium aluminosilicate (SPAS) were compared in pigment millbase formulation. Formulations of this type are representative of pigment formulations used in moisture-curing urethane coating systems. The following millbase formulation was used: […]
The following procedure was used to prepare the millbase. All the materials were weighed out and added under agitation into a pot. Soft Resin P-65, obtained from Mobay Corp., is a 65% synthetic (non-reactive polyester) resin in solvent Naphtha 100 and is employed as a grind aid. CAB 551, obtained from Eastman Chemical Products, Inc., Kingsport, Tenn., is cellulose acetate butyrate ester and was employed as a rheology aid. CAB 551 was dissolved in PMA. PMA is propylene glycol monomethyl ether acetate obtained from Eastman Chemical Products, Inc. The solution of CAB 551 in PMA included 33% CAB 551 by weight. Anti-Terra-U is a wetting and dispersing additive obtained from BYK-Chemie U.S.A., Wallingford Conn., and is a solution of a salt of unsaturated polyamine amides and higher molecular weight acidic esters. Ektasolve-EEP, obtained from Eastman Chemicals Products, Inc., is ethyl-3-ethoxypropionate stabilized with 2,6-di-tert-butyl- p-cresol, and was employed as a solvent. M-P-A 2000X, obtained from Rheox, Inc., Hightstown, N.J., was employed as an antisettling agent. R-960-TiO2 is a titanium dioxide pigment obtained from E.I. du Pont Nemours & Co., Inc., Wilmington, Del.
Once the ingredients were added to the vessel they were continuously agitated until a 7 Hegman grind value was obtained for the mixture. The millbase was then heated to 60° C. A portion of the mixture was removed, and the percent of water remaining was determined using gas chromatography. Using the determined percentage of water, the minimum amount of the water-scavenger compound to be added to the millbase was calculated using the following equation:
Minimum weight of water scavenger=wt. mb.×wt. % H2 O×(1/MW
H2 O×mol.×MW scavenger/purity)
The determined amount of each moisture-scavenger was added to one millbase. Six millbases were prepared. Each of the five moisture-scavengers listed above were tested in a millbase with one millbase remaining untreated as a control. Once the millbases were treated, they were mixed continuously. At 30 minutes, 60 minutes, 120 minutes, 180 minutes, 240 minutes, and 300 minutes, samples of the millbase were removed and the amount of water remaining in the millbase was determined using gas chromatography. In each trial two moles of moisture scavenger was used for every mole of water. The results of 6 trials are summarized below in Table I and graphically represented in FIG. 1.

[2] = system: four strains of Salmonella typhimurium; test: Ames Mutagenicity Assay; type: cell-based; conditions: presence and absence of exogenous mammalian activation system
Experimental: The Ames Mutagenicity Assay was performed to determine the mutagenicity of the compound. The assay evaluates the mutagenic potential of a test substance by its ability to induce back mutations at selected loci of four strains of Salmonella typhimurium in the presence and absence of an exogenous mammalian activation system.

[3] = Acute oral toxicity (TSCA, 40 CFR Part 798, 798.1175); conditions: rat, in vivo, dose levels 1.80, 1.50 and 1.30 g/kg, male and female Sprague-Dawley rats
Experimental: Based upon the standards of the Toxic Substance Control Act (TSCA), 40 CFR, Part 798, Subpart A, General Toxicity Testing, Acute Oral Toxicity, 798.1175, July 1989, 2-isopropyl-4-ethyl oxazolidine was evaluated for its potential to produce death following oral administration at dose levels of 1.80g/kg, 1.50 g/kg, and 1.30 g/kg, to male and female Sprague-Dawley rates.

[4] = system: skin of New Zealand White Rabbits; test: Primary dermal irritation (TSCA, Section 798.4470); type: in vivo; conditions: single topical application, TSCA guidelines
Experimental: Based upon the standards of the Toxic Substances Control Act (TSCA), 40 CFR, Part 798, Subpart E, Specific Organ/Tissue Toxicity, Primary Dermal Irritation, Section 798.4470, July 1989, 2-isopropyl-4-ethyl oxazolidine was evaluated for its potential to produce primary dermal irritation after a single topical application to the skin of New Zealand White Rabbits.

[5] = system: male and female New Zealand White albino rabbits; test: Acute dermal toxicity (TSCA, 789.1100); type: in vivo; conditions: topical, 2 g/Kg
Experimental: Based upon the standards of the Toxic Substance Control Act (TSCA), 40 CFR, Part 798, Subpart A, General Toxicity Testing, Acute Dermal Toxicity, 789.1100, July 1989, the compound was evaluated for its potential to produce systematic toxicity or death following topical application at a dose of 2 g/Kg in male and female New Zealand White albino rabbits.

[6] = Acute oral toxicity (FIFRA, 40 CFR 162); type: in vivo, Sprague-Dawley derived, albino rats; conditions: rat, in vivo, undiluted, male and female Sprague-Dawley rats
Experimental: (§1) The acute oral toxicity of the compound was evaluated in compliance with the conditions specified in the Regulation for the Enforcement of Federal Insecticide, Fungicide and Rodenticide Act (40 CFR 162). The compound was administered undiluted at a dosage of 5.0 g/kg to one group of five male and five female, Sprague-Dawley derived, albino rats. […] Animals were weighed seven days after treatment. At the end of the 14-day observation period, the rats were weighed, killed, and given a gross necropsy.

[7] = system: male and female Sprague-Dawley derived albino rats; test: Acute oral toxicity (FIFRA, 40 CFR 162); type: in vivo; conditions: undiluted, 5.0 g/kg, rats
Experimental: as §1

[8] = Acute dermal toxicity (FIFRA, 40 CFR 162); type: in vivo, New Zealand White Rabbits; conditions: rabbit, in vivo, topical or ocular, undiluted, male and female New Zealand White rabbits
Experimental: (§2) The acute dermal toxicity of the compound was evaluated in compliance with the conditions specified in the Regulation for the Enforcement of Federal Insecticide, Fungicide and Rodenticide Act (40 CFR 162). The compound was applied undiluted to the skin of one group of five male and five female New Zealand White Rabbits at a dosage of 2.0 g/kg for 24 hours. […] Animals were weighted 7 days after treatment. At the end of the 14day observation period, the rabbits were weighed, killed, and given a gross necropsy.

[9] = system: skin of male and female New Zealand White Rabbits; test: Acute dermal toxicity (FIFRA, 40 CFR 162); type: in vivo; conditions: undiluted, 2.0 g/kg for 24 hours, rabbits
Experimental: as §2

[10] = system: intact skin of New Zealand White rabbits; test: Primary skin irritation (FIFRA, 40 CFR 162); type: in vivo
Experimental: The primary skin irritation of the compound was evaluated in compliance with the conditions specified in the Regulation for the Enforcement of Federal Insecticide, Fungicide and Rodenticide Act (40 CFR 162). A small amount of the compound (0.5 ml) was applied to an intact skin site on six New Zealand White rabbits (three males and three females) and allowed to remain in contact with the skin for 4 hours. The sites were scored for erythema and edema and checked for tissue damage 1/2 hour after the end of the application period (41/2 hour reading) and […] (24-hour reading) and at 48 and 72 hours.

[11] = system: eye of New Zealand White rabbits; test: Primary eye irritation (FIFRA, 40 CFR 162); type: in vivo
Experimental: The primary […] irritation of the compound was evaluated in compliance with the conditions specified in the Regulation for the Enforcement of Federal Insecticide, Fungicide and Rodenticide Act (40 CFR 162). A small amount of the undiluted compound (0.1 ml) was applied to the right or left eye of six New Zealand White rabbits (one male and five females). The compound was allowed to remain without rinsing in the eyes of the animals. The eyes were graded for corneal changes, conjunctival changes, and changes in the iris one hour after application, and one, two, three, four, and seven days later.

[12] = 2 hrs, millbase heated to 60° C., two moles of scavenger per mole of water

**Q.** With CCC1COC(C(C)C)N1 (stereo not drawn) [BBA, 4-ethyl-2-isopropyl oxazolidine] as the molecule, how does the “% H2O Remaining After 30 min.” value [1] read?
**A.** .20%

**Q.** And the “% H2O Remaining After 60 min.” value [1]?
**A.** .19%

**Q.** And the “% H2O Remaining After 2 hrs.” value [1]?
**A.** .13%

**Q.** What about the “mutagenicity (Ames)” value [2] of the same molecule?
**A.** non-mutagenic

**Q.** And the LD50 [3]?
**A.** 1600 mg/kg

**Q.** And the “primary dermal irritation classification” value [4]?
**A.** moderate irritant

**Q.** What about the “acute dermal toxicity classification” value ([5]; TSCA guidelines) of the same molecule?
**A.** non-toxic

**Q.** What about the “acute dermal toxicity: mortality” value ([5]; male and female rabbits) of the same molecule?
**A.** absence of mortality

**Q.** For CCC12COC(C(C)C)N1C(C(C)C)OC2 (stereo not drawn) [EBA], which “% H2O Remaining After 30 min.” value [1] is on record?
**A.** .08%

**Q.** And the “% H2O Remaining After 60 min.” value [1]?
**A.** .08%

**Q.** And the “% H2O Remaining After 2 hrs.” value [1]?
**A.** .06%

**Q.** What about the “mutagenicity (Ames)” value [2] of the same molecule?
**A.** non-mutagenic

**Q.** And the LD50 at 336 h [6]?
**A.** > 5000 mg/kg

**Q.** And the clinical changes ([7]; 14-day observation)?
**A.** urine and/or fecal stains, mucoid feces, and alopecia

**Q.** And the deaths ([7]; 14-day observation)?
**A.** No deaths occurred

**Q.** What about the gross necropsy findings ([7]; end of 14-day observation) of the same molecule?
**A.** one rat with darkened and mottled lungs, otherwise no gross changes

**Q.** What about the LD50 at 336 h [8] of the same molecule?
**A.** > 2000 mg/kg

**Q.** What about the clinical changes ([9]; 14-day observation) of the same molecule?
**A.** No clinical changes were observed

**Q.** And the deaths ([9]; 14-day observation)?
**A.** No deaths occurred

**Q.** What about the gross necropsy findings ([9]; end of 14-day observation) of the same molecule?
**A.** no significant gross changes

**Q.** What about the “most frequently observed irritative effects” value [9] of the same molecule?
**A.** erythema and desquamation

**Q.** And the persistence of irritation ([10]; 0.5 ml, 4 hours contact, 72 hours after application)?
**A.** Mild irritation persisted 72 hours after application

**Q.** And the “Primary Irritation Index” value ([10]; rabbit, in vivo)?
**A.** 2.7

**Q.** And the “tissue damage (corrosion)” value ([10]; rabbit, in vivo)?
**A.** No evidence of tissue damage (corrosion)

**Q.** What about the eye irritation persistence ([11]; 0.1 ml undiluted, without rinsing, six rabbits) of the same molecule?
**A.** irritation persisting for seven days

**Q.** And the corneal opacity ([11]; rabbit, in vivo)?
**A.** corneal opacity persisting for less than seven days

**Q.** Which “% H2O Remaining After 2 hrs.” value [1, 12] does the source give for CC1(C)CC(N=C=O)CC(C)(CN=C=O)C1 (stereo not drawn) [IPDI, isophorone diisocyanate, reference compound] here?
**A.** < .02%

**Q.** Which “% H2O Remaining After 30 min.” value ([1]; 30 min, millbase heated to 60° C., two moles of scavenger per mole of water) does the source give for Cc1ccc(S(=O)(=O)N=C=O)cc1 [PTSI, p-toluenesulfonyl isocyanate, reference compound] here?
**A.** < .05%

**Q.** And the “% H2O Remaining After 60 min.” value ([1]; 60 min, millbase heated to 60° C., two moles of scavenger per mole of water)?
**A.** < .05%

**Q.** What about the “% H2O Remaining After 2 hrs.” value [1, 12] of the same molecule?
**A.** < .05%
